The first assay addresses P2Y purinoceptor 12 (Homo sapiens) (UniProt Q9H244). The experiment in a line: Antagonist activity at P2Y12 receptor assessed as platelet aggregation at 30 uM by washed platelet assay. In kind it is functional.
Sequence of P2Y purinoceptor 12 (Homo sapiens) (Q9H244 whole entry): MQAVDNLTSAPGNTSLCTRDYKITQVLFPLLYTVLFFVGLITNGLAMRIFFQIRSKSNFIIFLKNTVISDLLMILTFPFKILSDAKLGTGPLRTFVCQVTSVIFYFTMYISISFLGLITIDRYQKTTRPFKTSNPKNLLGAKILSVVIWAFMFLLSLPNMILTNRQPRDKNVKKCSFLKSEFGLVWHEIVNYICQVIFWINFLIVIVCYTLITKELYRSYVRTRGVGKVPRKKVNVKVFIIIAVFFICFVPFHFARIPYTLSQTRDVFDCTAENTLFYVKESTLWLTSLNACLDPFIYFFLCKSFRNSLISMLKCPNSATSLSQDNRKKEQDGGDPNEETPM
As to `CCNC(=O)Nc1ncnc2c1ncn2[C@@H]1O[C@H](CNC/C(C)=C/C(=O)OCC)[C@H]2O[C@H](/C=C/c3ccccc3)O[C@H]21`, the inhibition (commonly how much of the control response was suppressed) stood at 70%.
The same measure, in the same setting: next, `CCNC(=O)Nc1ncnc2c1ncn2[C@@H]1O[C@H](CNCc2nccs2)[C@H]2O[C@H](/C=C/c3ccccc3)O[C@H]21`: 73%; `CCNC(=O)Nc1ncnc2c1ncn2[C@@H]1O[C@H](CS(=O)(=O)CC(O)CO)[C@H]2O[C@H](/C=C/c3ccccc3)O[C@H]21` (stereo not given in full): 14%; `CCNC(=O)Nc1ncnc2c1ncn2[C@@H]1O[C@H](CSCC(C)O)[C@H]2O[C@H](/C=C/c3ccccc3)O[C@H]21` (stereo not given in full): 76%.
As for `CCNC(=O)Nc1ncnc2c1ncn2[C@@H]1O[C@H](CNCc2ccccc2O)[C@H]2O[C@H](/C=C/c3ccccc3)O[C@H]21`, the inhibition turned out to be 70%.
Turning to `CCCS(=O)(=O)C[C@H]1O[C@@H](n2cnc3c(NC(=O)NCC)ncnc32)[C@@H]2O[C@@H](/C=C/c3ccccc3)O[C@@H]21`, the inhibition was determined as 65%.
Turning to `CCCCCCCSC[C@H]1O[C@@H](n2cnc3c(NC(=O)NCC)ncnc32)[C@@H]2O[C@@H](/C=C/c3ccccc3)O[C@@H]21`, the inhibition amounted to 38%.
Same read-out and setting: under `CCNC(=O)Nc1ncnc2c1ncn2[C@@H]1O[C@H](CSCCO)[C@H]2O[C@H](/C=C/c3ccccc3)O[C@H]21` stands 63%; under `CCCSC[C@H]1O[C@@H](n2cnc3c(NC(=O)NCC)ncnc32)[C@@H]2O[C@@H](/C=C/c3ccccc3)O[C@@H]21`, 52%; under `CCNC(=O)Nc1ncnc2c1ncn2[C@@H]1O[C@H](CNC(=O)c2[nH]c(C)c(C(C)=O)c2C)[C@H]2O[C@H](/C=C/c3ccccc3)O[C@H]21`, 53%.
Same read-out and setting: next, `CCNC(=O)Nc1ncnc2c1ncn2[C@@H]1O[C@H](CS(=O)(=O)CCO)[C@H]2O[C@H](/C=C/c3ccccc3)O[C@H]21`: 57%.
Still for that read-out and setting: next, `CCNC(=O)Nc1ncnc2c1ncn2[C@@H]1O[C@H](CSC)[C@H]2O[C@H](/C=C/c3ccccc3)O[C@H]21`: 63%; `CCNC(=O)Nc1ncnc2c1ncn2[C@@H]1O[C@H](CSCCCS(=O)(=O)O)[C@H]2O[C@H](/C=C/c3ccccc3)O[C@H]21`: 90%.
Consider `CCNC(=O)Nc1ncnc2c1ncn2[C@@H]1O[C@H](CN(CC2CC2C(=O)OCC)CC2CC2C(=O)OCC)[C@H]2O[C@H](/C=C/c3ccccc3)O[C@H]21` (stereo not given in full), for which the inhibition came out at 46%.

Biological target in a further assay: not listed separately
The assay can be described thus: Antagonist activity at P2Y12 receptor assessed as platelet aggregation by washed platelet assay.
Turning to `CCNC(=O)Nc1ncnc2c1ncn2[C@@H]1O[C@H](COP(=O)(O)O)[C@H]2O[C@H](/C=C/c3ccccc3)O[C@H]21` [REGRELOR DISODIUM], the IC50 (usually the concentration that gives 50% inhibition) was found to be 16 nM.
